PubChem BioAssay (NCI)
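Five concentrations, 48 hours, 96-well plates. GI50 marks 50% less growth. At the TGI there is no net growth.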

Experiments:
Assay in all cases: NCI-60 cell line screen, 48 h
786-0 renal = tested on: 786-0 renal
A498 renal = tested on: A498 renal
CAKI-1 renal = tested on: CAKI-1 renal
HL-60(TB) leukemia = tested on: HL-60(TB) leukemia
HOP-92 NSCLC = tested on: HOP-92 NSCLC
MOLT-4 leukemia = tested on: MOLT-4 leukemia
NCI-H226 lung = tested on: NCI-H226 lung
PC-3 prostate = tested on: PC-3 prostate
RPMI-8226 leukemia = tested on: RPMI-8226 leukemia
SK-MEL-28 melanoma = tested on: SK-MEL-28 melanoma
SNB-19 CNS = tested on: SNB-19 CNS
UO-31 renal = tested on: UO-31 renal

Row | Compound | TGI (786-0 renal) | TGI (A498 renal) | TGI (CAKI-1 renal) | TGI (HL-60(TB) leukemia) | TGI (HOP-92 NSCLC) | TGI (MOLT-4 leukemia) | TGI (NCI-H226 lung) | TGI (PC-3 prostate) | TGI (RPMI-8226 leukemia) | TGI (SK-MEL-28 melanoma) | TGI (SNB-19 CNS) | TGI (UO-31 renal) | GI50 (CAKI-1 renal) | GI50 (HL-60(TB) leukemia) | GI50 (PC-3 prostate)
1 | CN(C)c1ccc(/C=c2/c3ccccc3n3c2c2c([n+]3C)CCCC2)cc1 | 3.24 µM | 0.92 µM | 4.8 µM | 0.363 µM | 0.141 µM | 1.59 µM | 2.43 µM | 2.06 µM | 0.656 µM | 2.06 µM | 6.68 µM | 6.5 µM | – | – | –
2 | COc1cc(C2c3cc4c(cc3OC(N3CCCCC3)C2C)OCO4)cc(OC)c1O (stereo not given) | 27.7 µM | 27.1 µM | 25.2 µM | 15.4 µM | 37.3 µM | > 91.3 µM | > 64.2 µM | 22.2 µM | > 76.3 µM | 27.3 µM | 53.7 µM | 34.8 µM | – | – | –
3 | CC1(C)OC(C(=O)Nc2cc3c4ccccc4ccc3c3ccccc23)C(C(=O)N2CCCCC2)O1 (stereo not given) | > 100 µM | > 100 µM | > 54.6 µM | > 100 µM | > 100 µM | > 23.9 µM | > 100 µM | > 100 µM | > 43.2 µM | > 100 µM | > 100 µM | > 100 µM | – | – | –
4 | COC(=O)C1=C(OC(=O)/C(=C/c2ccc(Cl)cc2)c2ccc(Cl)cc2)C(C(=O)OC)[C@@]2(O)[C@@H](C(=O)OC)[C@H](C)C[C@@H]1[C@@H]2C(=O)OC (stereo not given in full) | > 100 µM | > 100 µM | > 100 µM | > 100 µM | > 86.9 µM | 98.8 µM | > 100 µM | > 100 µM | > 100 µM | > 100 µM | > 100 µM | > 100 µM | – | – | –
5 | COc1cc(C2C3C=CC=C4CC=CC(=C43)C3CCC(=O)N32)cc(OC)c1OC (stereo not given) | > 100 µM | > 100 µM | – | > 100 µM | > 100 µM | > 100 µM | 36.3 µM | > 100 µM | > 100 µM | > 100 µM | > 100 µM | > 100 µM | – | – | –
6 | C=CCCON(C(=O)OC(C)(C)C)C(C)(C)C | > 100 µM | > 100 µM | > 100 µM | > 100 µM | > 100 µM | > 100 µM | > 100 µM | > 100 µM | > 100 µM | > 100 µM | > 100 µM | > 100 µM | – | – | –
7 | Cc1ccnc2[nH]c(-c3ccc4ccccc4c3)cc(=O)c12 | 5.97 µM | 4.87 µM | 14.4 µM | 0.609 µM | 4.78 µM | > 100 µM | 11.4 µM | 6.06 µM | 8.05 µM | 14.9 µM | 31 µM | 16 µM | 2.39 µM | 0.202 µM | 1.38 µM
8 | COC(=O)c1ccc(/C=C/c2cc(O)ccc2O)cc1 | 16.9 µM | 33 µM | 7.5 µM | 1.06 µM | 7.69 µM | 0.927 µM | > 27 µM | 22.2 µM | 4.14 µM | 43.4 µM | > 100 µM | 3.67 µM | – | – | –
9 | CC(C)(C)OC(=O)NC1CCCCC1NC(=O)C(=O)NC1CCCCC1NC(=O)OC(C)(C)C (stereo not given) | > 100 µM | 79.6 µM | > 100 µM | > 100 µM | 45 µM | > 100 µM | > 100 µM | > 100 µM | > 100 µM | > 100 µM | > 100 µM | > 100 µM | – | – | –
10 | O=C1C2SC34c5c2c2ccccc2n5CCC3CCCN14 (stereo not given) | > 100 µM | > 100 µM | > 100 µM | > 100 µM | > 100 µM | > 100 µM | > 100 µM | > 100 µM | > 100 µM | > 100 µM | > 100 µM | > 100 µM | – | – | –
11 | C=CCc1cccc2cc(C(=O)NCc3ccccc3)c(=N)oc12 | 91.4 µM | 86.8 µM | > 100 µM | > 100 µM | > 100 µM | > 100 µM | 79.3 µM | > 100 µM | > 100 µM | > 100 µM | > 100 µM | – | – | – | –
12 | CCn1c(-c2ccccc2)cs/c1=N\C(P(=O)(O)O)P(=O)(O)O | > 100 µM | > 100 µM | > 100 µM | > 100 µM | > 100 µM | > 100 µM | > 100 µM | > 100 µM | > 100 µM | > 100 µM | > 100 µM | > 100 µM | – | – | –
13 | O=c1oc2ccc3ccccc3c2cc1-c1nc2ccccc2s1 | > 100 µM | > 100 µM | > 100 µM | > 100 µM | > 100 µM | > 21.6 µM | > 100 µM | > 100 µM | > 32.8 µM | > 100 µM | > 26.9 µM | > 100 µM | – | – | –
14 | COc1cc(OC)cc(Oc2nc3ccccc3nc2C(F)(F)F)c1 | > 100 µM | 73.9 µM | > 100 µM | > 100 µM | > 100 µM | > 100 µM | > 100 µM | > 100 µM | > 100 µM | > 100 µM | > 100 µM | > 100 µM | – | – | –
15 | CCOC(=O)CCC(NC(=O)Cc1ccc(Nc2nc3cc(F)c(F)cc3nc2C(=O)OCC)cc1)C(=O)OCC (stereo not given) | > 100 µM | > 100 µM | > 100 µM | 50 µM | 82.1 µM | > 100 µM | > 100 µM | > 100 µM | – | > 100 µM | > 100 µM | > 100 µM | – | – | –
16 | CC(=O)OC(OC(C)=O)c1ccc2ccc3cccc4ccc1c2c34 | > 100 µM | 3.74 µM | 32.5 µM | > 100 µM | 42.3 µM | > 100 µM | 8.43 µM | 65.6 µM | > 100 µM | – | 98.7 µM | 44.6 µM | – | – | –
17 | O=c1oc2ccccc2cc1-c1cc2ccccn2c1 | > 100 µM | > 100 µM | > 100 µM | > 100 µM | > 100 µM | > 100 µM | > 100 µM | > 100 µM | > 100 µM | > 100 µM | > 100 µM | > 100 µM | – | – | –
18 | O=C1C=CC(=O)c2c1ccc1c3ccccc3n(CCCCCn3c4ccccc4c4ccc5c(c43)C(=O)C=CC5=O)c21 | 14.3 µM | > 95.7 µM | 13.7 µM | 3.23 µM | 35.6 µM | 5.11 µM | > 100 µM | 33.9 µM | 18.8 µM | 31.5 µM | > 100 µM | 16.4 µM | – | – | –
